Reference: patent EP4631957A1, “PEPTIDE FOR CARTILAGE REGENERATION, AND USES THEREOF” (Caregen Co., Ltd., priority 2022, dated 2024)
Where a SMILES comes first, the peptide text is derived from it. Where no end group is shown, it is not given here.

Test system: C28/I2 cells
Experiment: CCK-8 cytotoxicity assay in human-derived chondrocytes
Assay type: cell-based
Conditions: peptide at different concentrations, 3 days, read at 450 nm, FIG. 1 and FIG. 2
Protocol: The cytotoxicity of Peptide-1 or Peptide-2 upon addition to human-derived chondrocytes (C28/I2, human chondrocyte cell line) was analyzed using a CCK-8 assay.
Specifically, human-derived chondrocytes were seeded in a 96-well plate at a density of 3 × 10^3 cells/well and cultured in DMEM medium (cat. 11995-065, Gibco) for 24 hours. […] Meanwhile, as a negative control group (CON), an experimental group to which the peptide was not added was used.

Compound | toxicity in human-derived chondrocytes (CCK-8 activity)
TAVRVG [Peptide-2] | did not exhibit toxicity
N=C(N)NCCC[C@H](N)C(=O)N[C@@H](Cc1ccc(O)cc1)C(=O)N[C@@H](Cc1ccccc1)C(=O)O [Peptide-1, Arg(R)-Tyr(Y)-Phe(F)] (H-Arg-Tyr-Phe-OH) | did not exhibit toxicity
